According to ChEMBL document CHEMBL1135594 (J Med Chem, 2002):
The source made the active and inactive calls. The calls are words filed in the database; no cut-off is given here.

Tests used:
[1] = biological target: T1, Histidine-rich protein PFHRP-II (Plasmodium falciparum, UniProt P05227); assay: Inhibition of beta-hematin formation; type: functional
T1 sequence (P05227 whole entry): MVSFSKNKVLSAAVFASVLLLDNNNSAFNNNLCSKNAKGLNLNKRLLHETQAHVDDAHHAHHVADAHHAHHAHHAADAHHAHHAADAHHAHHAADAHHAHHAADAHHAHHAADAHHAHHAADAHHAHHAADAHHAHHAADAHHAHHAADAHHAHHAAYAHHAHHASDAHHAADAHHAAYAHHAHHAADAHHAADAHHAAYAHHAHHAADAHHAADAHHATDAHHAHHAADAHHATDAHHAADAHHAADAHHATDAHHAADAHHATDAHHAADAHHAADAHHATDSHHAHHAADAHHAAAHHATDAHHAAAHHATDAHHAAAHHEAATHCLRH

Plasmodium falciparum [2] = assay: microbe, parasite or virus in culture
Plasmodium falciparum [3] = assay: microbe, parasite or virus in culture; remark: listed apart in the source
Plasmodium falciparum [4] = assay: microbe, parasite or virus in culture; remark: listed apart in the source
Plasmodium falciparum [5] = assay: microbe, parasite or virus in culture; remark: listed apart in the source
[6] = Resistance factor as the ratio of IC50 against Plasmodium falciparum K1 to that of Plasmodium falciparum HB3.; type: functional
Plasmodium falciparum [7] = assay: Displacement of chloroquine from Fe(3+) FPIX-loaded membrane; type: functional
Plasmodium falciparum [8] = assay: Inhibition of chloroquine uptake from intact parasites; Not active; type: functional, organism-based

Row | Compound | IC50 [1] [µM] | IC50 (Plasmodium falciparum [2]) [µM] | IC50 (Plasmodium falciparum [3]) [µM] | IC50 (Plasmodium falciparum [4]) [µM] | IC50 (Plasmodium falciparum [5]) [µM] | Resistance factor [6] | IC50 (Plasmodium falciparum [7]) [µM] | NA (Plasmodium falciparum [8])
1 | Clc1ccc2c(NCCN3CCCC3)ccnc2c1 | 78 | 0.0132 | 5.94 | 0.0068 | 1.62 |  |  | 
2 | CCN(CC)CCCC(C)Nc1ccnc2cc(Cl)ccc12 (stereo not drawn) |  |  |  |  |  | 10 |  | 
3 | CC(C)(C)NCCNc1ccnc2cc(Cl)ccc12 | 70 | 0.0153 | 3.94 | 0.0043 | 0.71 |  |  | 
4 | CC(C)(C)NCCNc1ccnc2cc(C(F)(F)F)ccc12 | 71 | 0.0098 |  | 0.0055 | 2.09 | 1.78 | 4.96 | 
5 | Clc1ccc2c(NCCN3CCOCC3)ccnc2c1 | 102 | 0.24 | 24.9 | 0.15 |  |  |  | inactive
6 | Clc1ccc2c(NCCN3CCCCC3)ccnc2c1 | 86 | 0.013 | 7.65 | 0.0068 | 0.91 |  |  | 
7 | FC(F)(F)c1ccc2c(NCCN3CCCCC3)ccnc2c1 | 65 | 0.0222 | 8.39 | 0.0106 | 2.03 | 2.09 |  | 
